Laboratory results from patent US7446199B2, “Compositions useful as inhibitors of protein kinases” (Vertex Pharmaceuticals Incorporated, priority 2003, dated 2008).

Columns and labels:
GSK-3β, (AA 1-420) = GSK-3β, (AA 1-420) (Homo sapiens, UniProt P49841); test: GSK-3 inhibition assay, coupled enzyme system; format: biochemical; conditions: 20 μM ATP, 300 μM peptide, 20 nM GSK-3b, 30° C.; read-out: Ki values (GSK3)
Method in brief: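 Pyruvate kinase/lactate dehydrogenase-coupled NADH assay with 20 nM enzyme, 20 μM ATP and 300 μM peptide in HEPES pH 7.5, 1.5% DMSO, 30° C. Compound (0.002–30 μM, 12-point) preincubated 10 min before ATP start; rates over 10 min gave Ki.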

Aurora-2 = biological target: T1, Aurora-2 (Homo sapiens, UniProt O14965); test: Inhibition of AUR-2, coupled enzyme assay; format: biochemical; conditions: 70 nM Aurora-2, 800 μM peptide LRRASLG, 30° C.
T1 construct: addition of 10 μL of Aurora-2 stock solution to give a final concentration of 70 nM
T1 sequence (O14965 1-403): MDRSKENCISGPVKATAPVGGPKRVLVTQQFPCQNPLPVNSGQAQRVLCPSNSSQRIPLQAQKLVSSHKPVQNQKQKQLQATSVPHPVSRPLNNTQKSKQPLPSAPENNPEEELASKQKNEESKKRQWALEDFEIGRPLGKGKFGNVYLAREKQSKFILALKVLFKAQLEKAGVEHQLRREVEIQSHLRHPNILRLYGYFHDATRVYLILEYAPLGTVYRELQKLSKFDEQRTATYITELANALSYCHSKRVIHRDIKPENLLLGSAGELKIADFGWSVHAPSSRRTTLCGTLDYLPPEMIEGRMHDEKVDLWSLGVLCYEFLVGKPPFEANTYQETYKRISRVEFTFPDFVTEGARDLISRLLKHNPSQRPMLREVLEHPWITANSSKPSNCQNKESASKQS
Procedure: Compounds are screened in the following manner for their ability to inhibit Aurora-2 using a standard coupled enzyme assay (Fox et al. (1998) Protein Sci 7, 2249). To an assay stock buffer solution containing 0.1M HEPES 7.5, 10 mM MgCl2, 1 mM DTT, 25 mM NaCl, 2.5 mM phosphoenolpyruvate, […], […], […], and 800 μM peptide (LRRASLG, American Peptide, Sunnyvale, Calif.) is added a DMSO solution of a compound of the present invention to a final concentration of 30 μM. The resulting mixture is incubated at 30° C. for 10 min. The reaction was initiated by the addition of 10 μL of Aurora-2 stock solution to give a final concentration of 70 nM in the assay. The rates of reaction are obtained by monitoring absorbance at 340 nm over a 5 minute read time at 30° C. using a BioRad Ultramark plate reader (Hercules, Calif.). The Ki values are determined from the rate data as a function of inhibitor concentration.

GSK-3β, (AA 1-420), sequence (P49841 whole entry, the tested form may be a part): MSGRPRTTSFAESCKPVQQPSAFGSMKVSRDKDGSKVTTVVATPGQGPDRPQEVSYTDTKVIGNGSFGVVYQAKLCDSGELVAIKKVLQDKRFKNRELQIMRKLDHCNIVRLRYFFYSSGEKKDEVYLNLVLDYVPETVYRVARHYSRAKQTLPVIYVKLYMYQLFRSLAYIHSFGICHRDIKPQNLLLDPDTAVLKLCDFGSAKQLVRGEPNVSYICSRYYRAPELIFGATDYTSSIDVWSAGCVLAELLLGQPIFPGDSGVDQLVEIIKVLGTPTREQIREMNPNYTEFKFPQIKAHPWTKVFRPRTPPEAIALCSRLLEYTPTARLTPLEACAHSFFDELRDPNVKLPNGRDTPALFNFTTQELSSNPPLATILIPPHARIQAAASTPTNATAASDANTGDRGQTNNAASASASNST

Row | SMILES | Ki (GSK-3β, (AA 1-420)) | Ki (Aurora-2)
1 | Clc1cccc(-c2cnoc2-c2c[nH]c3ncccc23)c1Cl [Compound 2, 3-[4-(2,3-Dichloro-phenyl)-isoxazol-5-yl]-1H-pyrrolo[2,3-b]pyridine] | 1000 to 12500 nM | 200 to 1000 nM
2 | Fc1c(Cl)cccc1-c1cnoc1-c1c[nH]c2ncccc12 [Compound 42, 3-[4-(3-Chloro-2-fluoro-phenyl)-isoxazol-5-yl]-1H-pyrrolo[2,3-b]pyridine] | 1000 to 12500 nM | 200 to 1000 nM
3 | c1cnc2[nH]cc(-c3oncc3C3CCCCC3)c2c1 [Compound 47, 3-(4-Cyclohexyl-isoxazol-5-yl)-1H-pyrrolo[2,3-b]pyridine] | 1000 to 12500 nM | 200 to 1000 nM
4 | Oc1cnc2[nH]cc(-c3oncc3-c3cccc(Cl)c3Cl)c2c1 [Compound 48, 3-[4-(2,3-Dichloro-phenyl)-isoxazol-5-yl]-1H-pyrrolo[2,3-b]pyridin-5-ol] | 1000 to 12500 nM | 200 to 1000 nM
5 | COc1cnc2[nH]cc(-c3oncc3-c3cccc(Cl)c3Cl)c2c1 [Compound 49, 3-[4-(2,3-Dichloro-phenyl)-isoxazol-5-yl]-5-methoxy-1H-pyrrolo[2,3-b]pyridine] | 200 to 1000 nM | < 200 nM
6 | CN1CCN(c2ccc(-c3cnc4[nH]cc(-c5nncn5-c5cccc(F)c5F)c4c3)cn2)CC1 [Compound 112] | 200 to 1000 nM | 
7 | Fc1cccc(-n2cnnc2-c2c[nH]c3ncc(-c4cccnc4)cc23)c1F [Compound 113, 3-[4-(2,3-Difluoro-phenyl)-4H-[1,2,4]triazol-3-yl]-5-pyridin-3-yl-1H-pyrrolo[2,3-b]pyridine] | < 200 nM | 
8 | Fc1cccc(-n2cnnc2-c2c[nH]c3ncc(-c4ccncc4)cc23)c1F [Compound 114, 3-[4-(2,3-Difluoro-phenyl)-4H-[1,2,4]triazol-3-yl]-5-pyridin-4-yl-1H-pyrrolo[2,3-b]pyridine] | < 200 nM | 
9 | Fc1cccc(-n2cnnc2-c2c[nH]c3ncc(-c4ccc(N5CCC[C@H]5CN5CCCC5)nc4)cc23)c1F [Compound 115, 3-[4-(2,3-Difluoro-phenyl)-4H-[1,2,4]triazol-3-yl]-5-[6-(2-pyrrolidin-1-ylmethyl-pyrrolidin-1-yl)-pyridin-3-yl]-1H-pyrrolo[2,3-b]pyridine] | 200 to 1000 nM | 
10 | OC1CCN(c2ccc(-c3cnc4[nH]cc(-c5nncn5-c5cccc(F)c5F)c4c3)cn2)CC1 [Compound 116, 5′-{3-[4-(2,3-Difluoro-phenyl)-4H-[1,2,4]triazol-3-yl]-1H-pyrrolo[2,3-b]pyridin-5-yl}-3,4,5,6-tetrahydro-2H-[1,2′]bi-pyridinyl-4-ol] | 200 to 1000 nM | 
11 | CN1CCCN(c2ccc(-c3cnc4[nH]cc(-c5nncn5-c5cccc(F)c5F)c4c3)cn2)CC1 [Compound 117, 3-[4-(2,3-Difluoro-phenyl)-4H-[1,2,4]triazol-3-yl]-5-[6-(4-methyl-[1,4]diazepan-1-yl)-pyridin-3-yl]-1H-pyrrolo [2,3-b]-pyridine] | 200 to 1000 nM | 
12 | Fc1cccc(-n2cnnc2-c2c[nH]c3ncc(-c4ccc(N5CCCC5)nc4)cc23)c1F [Compound 118, 3-[4-(2,3-Difluoro-phenyl)-4H-[1,2,4]triazol-3-yl]-5-(6-pyrrolidin-1-yl-pyridin-3-yl)-1H-pyrrolo[2,3-b]pyridine] | 200 to 1000 nM | 
13 | CN(C)CCNc1ccc(-c2cnc3[nH]cc(-c4nncn4-c4cccc(F)c4F)c3c2)cn1 [Compound 119, N′-(5-{3-[4-(2,3-Difluoro-phenyl)-4H-[1,2,4]triazol-3-yl]-1H-pyrrolo[2,3-b]pyridin-5-yl}-pyridin-2-yl)-N,N-dimethyl-ethane-1,2-diamine] | 200 to 1000 nM | 
14 | Cc1noc(-c2c[nH]c3ncc(-c4ccc(N5CCN(C)CC5)cc4)cc23)c1-c1cccc(F)c1F [Compound 135, 3-[4-(2,3-Difluoro-phenyl)-3-methyl-isoxazol-5-yl]-5-[4-(4-methyl-piperazin-1-yl)-phenyl]-1H-pyrrolo[2,3-b]pyridine] | < 200 nM | 

Continued, values first:

Row | Ki (GSK-3β, (AA 1-420)) | Ki (Aurora-2) | SMILES
15 | 1000 to 12500 nM | 200 to 1000 nM | Fc1cccc(-c2cnoc2-c2c[nH]c3ncccc23)c1F [Compound 1, 3-[4-(2,3-Difluoro-phenyl)-isoxazol-5-yl]-1H-pyrrolo[2,3-b]pyridine]
16 | 200 to 1000 nM | < 200 nM | Fc1cccc(-c2cnoc2-c2c[nH]c3ncc(Br)cc23)c1F [Compound 37, 5-Bromo-3-[4-(2,3-difluoro-phenyl)-isoxazol-5-yl]-1H-pyrrolo[2,3-b]pyridine]
17 | 200 to 1000 nM | 200 to 1000 nM | COc1cnc2[nH]cc(-c3oncc3-c3cccc(F)c3F)c2c1 [Compound 38, 3-[4-(2,3-Difluoro-phenyl)-isoxazol-5-yl]-5-methoxy-1H-pyrrolo[2,3-b]pyridine]
18 | 200 to 1000 nM | 200 to 1000 nM | Oc1cnc2[nH]cc(-c3oncc3-c3cccc(F)c3F)c2c1 [Compound 43, 3-[4-(2,3-Difluoro-phenyl)-isoxazol-5-yl]-1H-pyrrolo[2,3-b]pyridin-5-ol]
19 | 200 to 1000 nM | < 200 nM | Fc1cccc(-c2cnoc2-c2c[nH]c3ncc(-c4ccncc4)cc23)c1F [Compound 57, 3-[4-(2,3-Difluoro-phenyl)-isoxazol-5-yl]-5-pyridin-4-yl-1H-pyrrolo[2,3-b]pyridine]
20 | 200 to 1000 nM | 200 to 1000 nM | Fc1cccc(-c2cnoc2-c2c[nH]c3ncc(-c4ccccc4)cc23)c1F [Compound 58, 3-[4-(2,3-Difluoro-phenyl)-isoxazol-5-yl]-5-phenyl-1H-pyrrolo[2,3-b]pyridine]
21 | 200 to 1000 nM | < 200 nM | Fc1cccc(-c2cnoc2-c2c[nH]c3ncc(-c4cccnc4)cc23)c1F [Compound 59, 3-[4-(2,3-Difluoro-phenyl)-isoxazol-5-yl]-5-pyridin-3-yl-1H-pyrrolo[2,3-b]pyridine]
22 | < 200 nM |  | Fc1cccc(-c2cnoc2-c2c[nH]c3ncc(/C=C/n4cncn4)cc23)c1F [Compound 133, 3-[4-(2,3-Difluoro-phenyl)-isoxazol-5-yl]-5-(2-[1,2,4]triazol-1-yl-vinyl)-1H-pyrrolo[2,3-b]pyridine]
23 | 200 to 1000 nM |  | Fc1cccc(-c2cnoc2-c2c[nH]c3ncc(C4=CCC(NCc5ccccc5)CC4)cc23)c1F (stereo not drawn) [Compound 136, Benzyl-(4-{3-[4-(2,3-difluoro-phenyl)-isoxazol-5-yl]-1H-pyrrolo[2,3-b]pyridin-5-yl}-cyclohex-3-enyl)-amine]
24 | < 200 nM |  | NC1CC=C(c2cnc3[nH]cc(-c4oncc4-c4cccc(F)c4F)c3c2)CC1 (stereo not drawn) [Compound 137, 4-{3-[4-(2,3-Difluoro-phenyl)-isoxazol-5-yl]-1H-pyrrolo [2,3-b]pyridin-5-yl}-cyclohex-3-enylamine]
25 | < 200 nM |  | CN(C)C1CC=C(c2cnc3[nH]cc(-c4oncc4-c4cccc(F)c4F)c3c2)CC1 (stereo not drawn) [Compound 138, (4-{3-[4-(2,3-Difluoro-phenyl)-isoxazol-5-yl]-1H-pyrrolo[2,3-b]pyridin-5-yl}-cyclohex-3-enyl)-dimethyl-amine]
26 | < 200 nM |  | Fc1cccc(-c2cnoc2-c2c[nH]c3ncc(C4=CCC(N5CCOCC5)CC4)cc23)c1F (stereo not drawn) [Compound 139, 3-[4-(2,3-Difluoro-phenyl)-isoxazol-5-yl]-5-(4-morpholin-4-yl-cyclohex-1-enyl)-1H-pyrrolo[2,3-b]pyridine]
27 | < 200 nM |  | CS(=O)(=O)NC1CC=C(c2cnc3[nH]cc(-c4oncc4-c4cccc(F)c4F)c3c2)CC1 (stereo not drawn) [Compound 140, N-(4-{3-[4-(2,3-Difluoro-phenyl)-isoxazol-5-yl]-1H-pyrrolo[2,3-b]pyridin-5-yl}-cyclohex-3-enyl)-methanesulfonamide]
